Drawing on patent US20040002460A1, “Spheron components useful in determining compounds capable of treating symptoms of Alzheimer's disease, and treatments and animal models produced therefrom” (priority 2002, published 2004), this text covers viability for one compound.

A short description of the series: in vitro.

Method: The spheron component peptides in phosphate buffered saline (PBS) were incubated alone and in combination into glioma cell cultures and neuroblastoma cell cultures. Controls of
Cryopreserved glioma and neuroblastoma cells were acquired from the American Type Culture Collection (ATCC), Virginia. Cells were thawed and diluted in suspension media and centrifuged at 700 rpm for 7 minutes at 4 C. Cell pellets then were resuspended in CACO-2 media and cultured in standard 75 or 175 cm^2 flasks at 37 C, 5% CO(2) until approximately confluent. The cells were then trypsinized and resuspended in CACO-2 media to achieve a final cell density of 1.5×10^5 cells/mL. 50 μL aliquots per sample were then added per well to 96 well plates.
For Experiment I, 50 μL of either PBS (phosphate buffered solution) (negative control), 100 μM tamoxifen in phosphate buffered saline PBS (positive control), or test article were added to each sample culture.
An MTT assay is a sensitive assay for the measurement of cell proliferation based upon the reduction of the tetrazolium salt 3,[4,5-dimetylthiazol-2-yl]-2,5-diphenyltetrazolium bromide (MTT). […] Plates were then agitated gently for 1 minute on a rotary shaker and the difference between emission absorbance of 570 nm and background absorbance of 650 nm was measured spectrophotometrically on an automated plate reader. […]

One may read the viability as the share of living cells, or the viability signal relative to a control. The low end stands for a greater loss of cells, the high end for better survival. In turn, `CC/C(=C(\c1ccccc1)c1ccc(OCCN(C)C)cc1)c1ccccc1` [Tamoxifen, tamoxifen] came in with a viability at 4 days, 100 µM of 63%.
